Measurements: ChEMBL document CHEMBL1137775, “Structure-based design of a benzodiazepine scaffold yields a potent allosteric inhibitor of hepatitis C NS5B RNA polymerase” (J Med Chem, 2009)

What was measured:
Hepatitis C virus [1] = experiment: Inhibition of HCV 1b con1 isolate recombinant NS5B Cdelta21 RNA dependent RNA polymerase-mediated primer-dependent transcription by SPA; set-up: species or system Hepacivirus hominis
Hepatitis C virus [2] = experiment: Antiviral activity against HCV 1b having NS5B E1202G/T1280I/K1846 mutation infected in human hepatoma cells after 3 days by replicon luciferase assay; assay type: functional, organism-based, Hepacivirus hominis; settings: genotype 1b, 72 h
Hepatitis C virus [3] = experiment: Binding affinity to HCV 1b con1 isolate recombinant NS5B Cdelta21 RNA dependent RNA polymerase overexpressed in Escherichia coli BL21(DE3) by surface plasmon resonance experiment; set-up: species or system Hepacivirus hominis

SMILES | IC50 (Hepatitis C virus [1]) [µM] | EC50 (Hepatitis C virus [2]) [µM] | Kd (Hepatitis C virus [3]) [µM]
Cc1cccc(C(=O)N2c3cccc(O)c3NC3=C([C@H]2c2ccc(OCc4ccccc4)cc2F)S(=O)(=O)CC(C)(C)C3)n1 | 6.7 | 4.8 | –
Cc1cccc(C(=O)N2c3cccc(O)c3NC3=C([C@@H]2c2ccc(OCc4ccccc4)cc2F)S(=O)(=O)CC(C)(C)C3)n1 | 0.026 | 0.029 | –
Cc1cccc(C(=O)N2c3cccc(O)c3NC3=C(C(=O)CC(C)(C)C3)[C@@H]2c2ccc(OCc3ccccc3)cc2F)n1 | 0.074 | 0.4 | 0.015
CC(=O)N1c2cccc(O)c2NC2=C(C(=O)CC(C)(C)C2)[C@@H]1c1ccc(OCc2ccccc2)cc1Cl | – | 1.2 | –
Cc1cccc(C(=O)N2c3cccc(O)c3NC3=C(C2c2ccc(OCc4ccccc4)cc2F)S(=O)(=O)CC(C)(C)C3)n1 (racemic) | 0.12 | 0.052 | –
